Legend:
[1] = in water at 25°C; cited from earlier work
[2] = physchem; conditions: 25 °C, organic solvent or mixture, thermodynamic from solid
[3] = Solubility of the additive or its sodium salt in a mixed solvent of tetrahydrofuran, acetone, tert-butyl methyl ether and water (supernatant analysed by HPLC); conditions: 25 °C, organic solvent or mixture, thermodynamic from solid

solubility ([2]; Solubility of additive) [mM] | solubility ([2]; Solubility of sodium salt of additive) [mM] | SMILES | pKa [1] | solubility [3] [mM] | solubility ([3]; Solubility of additive, 25°C, tetrahydrofuran:acetone:tert-butyl methyl ether 8:10:5 by volume, water 3% by mass, stirred for 6 hours or longer) [mM]
≥ 70 | 40 | CC(=O)Nc1ccc(O)cc1 [Acetaminophen] | 9.78 | – | –
– | – | Cc1cccc(O)c1 [m-Cresol] | – | ≥ 50 | ≥ 50

Source: patent publication EP4782433A1, “METHOD FOR PRODUCING ARYLAMIDE DERIVATIVE” (CHUGAI SEIYAKU KABUSHIKI KAISHA, priority 2023, dated 2025)
